Test results as given in patent publication US20080070867A1, “2-Imidazolone and 2-Imidazolidinone Heterocyclic Inhibitors of Tyrosine Phosphatases” (Metabasis Therapeutics, Inc., priority 2005, published 2008).

Molecular target: T1, Human recombinant PTP-1B (Homo sapiens, UniProt P18031)
T1 construct: Human recombinant PTP-1B, containing amino acids 1-321, fused to GST enzyme; GST (glutathione S-transferase)
T1 sequence (P18031 1-321): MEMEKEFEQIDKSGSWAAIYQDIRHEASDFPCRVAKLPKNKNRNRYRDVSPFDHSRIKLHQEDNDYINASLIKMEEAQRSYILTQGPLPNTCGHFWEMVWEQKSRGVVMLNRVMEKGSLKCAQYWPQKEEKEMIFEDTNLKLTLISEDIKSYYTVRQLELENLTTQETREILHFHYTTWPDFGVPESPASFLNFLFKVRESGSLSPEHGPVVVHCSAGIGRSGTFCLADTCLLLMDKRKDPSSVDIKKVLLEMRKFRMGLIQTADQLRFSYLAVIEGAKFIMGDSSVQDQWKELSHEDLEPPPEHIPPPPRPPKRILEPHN
Assay: Assay for PTP-1B Activity (pNPP substrate)
Assay type: biochemical
Details: human recombinant PTP-1B (1-321) GST fusion, 2 mM pNPP, pH 7.4, 30° C., 20 min; read-out: Activity Code (IC50 range)
Source text: The activity of the compounds as modulators of protein tyrosine phosphatase, including PTP-1B, may be measured in standard assays (see, e.g., Examples 41 and 42). Briefly, the assay described herein employs human recombinant PTP-1B and a pNPP substrate in a rescue assay.
Assay for PTP-1B Activity
Enzyme: Human recombinant PTP-1B, containing amino acids 1-321, fused to GST enzyme (glutathione S-transferase) purified by affinity chromatography (Huyer et al, 1997, J. Biol. Chem., 272, 843-852).
pNPP: p-Nitrophenyl Phosphate (Calbiochem)
Assay Buffer: 50 mM HEPES (pH 7.4), 100 mM NaCl, 2 mM EDTA, 3 mM DTT
(5×) pNPP substrate: 10 mM pNPP in assay buffer
Enzyme: 1 mg/ml PTP1B (1-321), dilute 1:200 in assay buffer
Assay buffer: 50 mM HEPES (pH 7.4), 100 mM NaCl, 2 mM EDTA, 3 mM DTT
Enzyme dilution buffer: 50 mM HEPES (pH 7.4), 100 mM NaCl, 2 mM EDTA, 3 mM DTT
Substrate 198 mM p-Nitrophenyl Phosphate (pNPP) store at 4° C.
The assay was carried out at 30° C. in 96 well plates. The reaction mixture in 60 ul contained 50 mM HEPES (pH 7.4), 100 mM NaCl, 2 mM EDTA, 3 mM DTT, and 2 mM p-Nitrophenyl Phosphate (pNPP). 5 ul of the test compound (inhibitor) dissolved in DMSO or DMSO alone for control was added to each well and the plate was mixed for 2 min. The reaction was initiated by adding 20 ul of diluted PTP1B (5 ng/ul in 50 mM HEPES (pH 7.4), 100 mM NaCl, 2 mM EDTA, 3 mM DTT). After 20 min at 30° C., the enzyme reaction was terminated by adding 100 ul of 2 M K2CO3 to each well. The phosphatase activity was detected by using Victor II plate reader (Wallac) with absorbance detection at 405 nm. All the assays were done at least in duplicate. The initial rate of pNP is plotted against the concentration of inhibitor.

Structure (SMILES)	IC50 [nM]
CCOC(=O)n1cc(-c2ccc(S(C)(=O)=O)cc2)n(Cc2ccc(C(F)(F)P(=O)(O)O)c(Br)c2)c1=O [Compound 1, 3-[3-Bromo-4-(difluoro-phosphono-methyl)-benzyl]-4-(4-methanesulfonyl-phenyl)-2-oxo-2,3-dihydro-imidazole-1-carboxylic acid ethyl ester]	100 to 249
O=C(O)c1ccc(-c2cn(Cc3ccccc3)c(=O)n2Cc2ccc(C(F)(F)P(=O)(O)O)c(Br)c2)cc1 [Compound 2, 4-{1-Benzyl-3-[3-bromo-4-(difluoro-phosphono-methyl)-benzyl]-2-oxo-2,3-dihydro-1H-imidazol-4-yl}-benzoic acid]	250 to 2500
CS(=O)(=O)c1ccc(-c2c[nH]c(=O)n2Cc2ccc(C(F)(F)P(=O)(O)O)c(Br)c2)cc1 [Compound 3, ({2-Bromo-4-[5-(4-methanesulfonyl-phenyl)-2-oxo-2,3-dihydro-imidazol-1-ylmethyl]-phenyl}-difluoro-methyl)-phosphonic acid]	250 to 2500
Cn1cc(-c2ccc(S(C)(=O)=O)cc2)n(Cc2ccc(C(F)(F)P(=O)(O)O)c(Br)c2)c1=O [Compound 4, ({2-Bromo-4-[5-(4-methanesulfonyl-phenyl)-3-methyl-2-oxo-2,3-dihydro-imidazol-1-ylmethyl]-phenyl}-difluoro-methyl)-phosphonic acid]	100 to 249
COC(=O)c1ccc(-c2cn(Cc3ccccc3)c(=O)n2Cc2ccc(C(F)(F)P(=O)(O)O)c(Br)c2)cc1 [Compound 6, 4-{1-Benzyl-3-[3-bromo-4-(difluoro-phosphono-methyl)-benzyl]-2-oxo-2,3-dihydro-1H-imidazol-4-yl}-benzoic acid methyl ester]	100 to 249
O=C(O)c1ccc(-c2c[nH]c(=O)n2Cc2ccc(C(F)(F)P(=O)(O)O)c(Br)c2)cc1 [Compound 7, 4-{3-[3-Bromo-4-(difluoro-phosphono-methyl)-benzyl]-2-oxo-2,3-dihydro-1H-imidazol-4-yl}-benzoic acid]	250 to 2500
O=C(O)c1ccc(-c2cn(Cc3ccccc3)c(=O)n2Cc2ccc(C(F)(F)P(=O)(O)O)c(Cl)c2)cc1 [Compound 9, 4-{1-Benzyl-3-[3-chloro-4-(difluoro-phosphono-methyl)-benzyl]-2-oxo-2,3-dihydro-1H-imidazol-4-yl}-benzoic acid]	250 to 2500
COC(=O)c1ccc(-c2cn(Cc3ccccc3)c(=O)n2Cc2ccc(C(F)(F)P(=O)(O)O)c(Cl)c2)cc1 [Compound 10, 4-{1-Benzyl-3-[3-chloro-4-(difluoro-phosphono-methyl)-benzyl]-2-oxo-2,3-dihydro-1H-imidazol-4-yl}-benzoic acid methyl ester]	250 to 2500
COC(=O)c1ccc(-c2cn(Cc3ccc(F)cc3)c(=O)n2Cc2ccc(C(F)(F)P(=O)(O)O)c(Br)c2)cc1 [Compound 11, 4-[3-[3-Bromo-4-(difluoro-phosphono-methyl)-benzyl]-1-(4-fluoro-benzyl)-2-oxo-2,3-dihydro-1H-imidazol-4-yl]-benzoic acid methyl ester]	100 to 249
COC(=O)c1ccc(-c2cn(CCc3ccccc3)c(=O)n2Cc2ccc(C(F)(F)P(=O)(O)O)c(Br)c2)cc1 [Compound 12, 4-{3-[3-Bromo-4-(difluoro-phosphono-methyl)-benzyl]-2-oxo-1-phenethyl-2,3-dihydro-1H-imidazol-4-yl}-benzoic acid methyl ester]	250 to 2500
O=C(O)c1ccc(-c2cn(Cc3ccc(F)cc3)c(=O)n2Cc2ccc(C(F)(F)P(=O)(O)O)c(Br)c2)cc1 [Compound 13, 4-[3-[3-Bromo-4-(difluoro-phosphono-methyl)-benzyl]-1-(4-fluoro-benzyl)-2-oxo-2,3-dihydro-1H-imidazol-4-yl]-benzoic acid]	250 to 2500
O=C(O)c1ccc(-c2cn(CCc3ccccc3)c(=O)n2Cc2ccc(C(F)(F)P(=O)(O)O)c(Br)c2)cc1 [Compound 14, 4-{3-[3-Bromo-4-(difluoro-phosphono-methyl)-benzyl]-2-oxo-1-phenethyl-2,3-dihydro-1H-imidazol-4-yl}-benzoic acid]	250 to 2500
COC(=O)c1ccc(-c2cn(Cc3ccc(C#N)cc3)c(=O)n2Cc2ccc(C(F)(F)P(=O)(O)O)c(Br)c2)cc1 [Compound 15, 4-[3-[3-Bromo-4-(difluoro-phosphono-methyl)-benzyl]-1-(4-cyano-benzyl)-2-oxo-2,3-dihydro-1H-imidazol-4-yl]-benzoic acid methyl ester]	100 to 249
CCOC(=O)c1ccc(-c2cn(Cc3ccccc3)c(=O)n2Cc2ccc(C(F)(F)P(=O)(O)O)c(Br)c2)cc1 [Compound 16, 4-{1-Benzyl-3-[3-bromo-4-(difluoro-phosphono-methyl)-benzyl]-2-oxo-2,3-dihydro-1H-imidazol-4-yl}-benzoic acid ethyl ester]	250 to 2500
CS(=O)(=O)c1ccc(-c2cn(Cc3ccccc3)c(=O)n2Cc2ccc(C(F)(F)P(=O)(O)O)c(Br)c2)cc1 [Compound 17, ({4-[3-Benzyl-5-(4-methanesulfonyl-phenyl)-2-oxo-2,3-dihydro-imidazol-1-ylmethyl]-2-bromo-phenyl}-difluoro-methyl)-phosphonic acid]	< 99
N#Cc1ccc(-c2cn(Cc3ccccc3)c(=O)n2Cc2ccc(C(F)(F)P(=O)(O)O)c(Br)c2)cc1 [Compound 20, ({4-[3-Benzyl-5-(4-cyano-phenyl)-2-oxo-2,3-dihydro-imidazol-1-ylmethyl]-2-bromo-phenyl}-difluoro-methyl)-phosphonic acid]	100 to 249
CS(=O)(=O)c1ccc(-c2cn(C3CC3)c(=O)n2Cc2ccc(C(F)(F)P(=O)(O)O)c(Br)c2)cc1 [Compound 21, ({2-Bromo-4-[3-cyclopropyl-5-(4-methanesulfonyl-phenyl)-2-oxo-2,3-dihydro-imidazol-1-ylmethyl]-phenyl}-difluoro-methyl)-phosphonic acid]	100 to 249
CS(=O)(=O)c1ccc(-c2cn(Cc3cccc(F)c3)c(=O)n2Cc2ccc(C(F)(F)P(=O)(O)O)c(Br)c2)cc1 [Compound 22, ({2-Bromo-4-[3-(3-fluoro-benzyl)-5-(4-methanesulfonyl-phenyl)-2-oxo-2,3-dihydro-imidazol-1-ylmethyl]-phenyl}-difluoro-methyl)-phosphonic acid]	100 to 249
COC(=O)c1ccc(-c2cn(Cc3cc(OC)cc(OC)c3)c(=O)n2Cc2ccc(C(F)(F)P(=O)(O)O)c(Br)c2)cc1 [Compound 23, 4-[3-[3-Bromo-4-(difluoro-phosphono-methyl)-benzyl]-1-(3,5-dimethoxy-benzyl)-2-oxo-2,3-dihydro-1H-imidazol-4-yl]-benzoic acid methyl ester]	< 99
COC(=O)c1ccc(-c2cn(C3CC3)c(=O)n2Cc2ccc(C(F)(F)P(=O)(O)O)c(Br)c2)cc1 [Compound 24, 4-{3-[3-Bromo-4-(difluoro-phosphono-methyl)-benzyl]-1-cyclopropyl-2-oxo-2,3-dihydro-1H-imidazol-4-yl}-benzoic acid methyl ester]	100 to 249
COC(=O)c1ccc(-c2cn(Cc3ccccn3)c(=O)n2Cc2ccc(C(F)(F)P(=O)(O)O)c(Br)c2)cc1 [Compound 25, 4-{3-[3-Bromo-4-(difluoro-phosphono-methyl)-benzyl]-2-oxo-1-pyridin-2-ylmethyl-2,3-dihydro-1H-imidazol-4-yl}-benzoic acid methyl ester]	100 to 249
